Data reported in patent publication US8461150B2, “Chalcone linked pyrrolo[2,1-c][1, 4]benzodiazepine hybrids as potential anticancer agents and process for the preparation thereof” (Council of Scientific & Industrial Research, priority 2008, dated 2013).

Tests used:
[1] = system: duplex-form calf thymus DNA (CT-DNA); test: Thermal denaturation studies with calf thymus DNA; format: binding; details: [PBD]:[DNA] molar ratio 1:5, CT-DNA 100 μM, ligand 20 μM, pH 7.00; for ΔTμ (° C.) after incubation at 37 °C. for 0 h: 0 h incubation; for ΔTμ (° C.) after incubation at 37 °C. for 18 h: 18 h incubation
Description: These compounds have also been subjected to thermal denaturation studies with duplex-form calf thymus DNA (CT-DNA) using an modification of a reported procedure. Working solutions in aqueous buffer (10 mM NaH2PO4/Na2HPO4, 1 mM Na2EDTA, pH 7.00+0.01) containing CT-DNA (100 μm in phosphate) and the PBD (20 μm) have been prepared by addition of concentrated PBD solutions in DMSO to obtain a fixed [PBD]/[DNA] molar ratio of 1:5. The DNA-PBD solutions have been incubated at 37° C. for 0 and 18 h prior to analysis. Samples have been monitored at 260 nm using a Beckman DU-800 spectrophotometer fitted with high performance temperature controller, and heated at 1° C. min^−1 in the 40-110° C. range. DNA helix→coil transition temperatures (Tm) have been obtained from the maxima in the d(A260)/d T derivative plots. Drug-induced alterations in DNA melting behavior are given by: ΔTm=Tm(DNA+PBD)−Tm(DNA alone), where the Tm value for the PBD-free CT-DNA is 68.5±0.01.

Renal cancer cell lines = test: NCI in vitro anticancer screen, SRB assay, 48 h, panel average; format: cell-based, human; details: average of six to eight cell lines, 48 h exposure
Description: (§1) Biological Activity: The in vitro cell line studies were carried out at the National Cancer Institute, Maryland, USA.
(§2) Cytotoxicity: • The compounds 6b) 7-Methoxy-8-{4-[1-(4-fluorophenyl)-3-(4-hydroxy-3-methoxyphenyl)-2-propen-1-one]butyl}-oxy-(11aS)-1,2,3,11a-5H-pyrrolo[2,1-c][1,4]benzodiazepin-5-one; • (6c) 7-Methoxy-8-{5-[1-(4-fluorophenyl)-3-(4-hydroxy-3-methoxyphenyl)-2-propen-1-one]pentyl}-oxy-(11aS)-1,2,3,11a-5H-pyrrolo[2,1-c][1,4]benzodiazepin-5-one; • (6g) 7-Methoxy-8-{3-[1-(2-hydroxyphenyl)-3-(4-hydroxy-3-methoxyphenyl)-2-propen-1-one]propyl}-oxy-(11aS)-1,2,3,11a-5H-pyrrolo[2,1-c][1,4]benzodiazepin-5-one; • (10a) 7-Methoxy-8-{3-[3-(4-hydroxy-3-methoxyphenyl)-1-(2,4-dimethyl-3-quinolyl)-2-propen-1-one]propyl}-oxy-(11aS)-1,2,3,11a-5H-pyrrolo[2,1-c][1,4]benzodiazepin-5-one • (10b) 7-Methoxy-8-{4-[3-(4-hydroxy-3-methoxyphenyl)-1-(2,4-dimethyl-3-quinolyl)-2-propen-1-one]butyl}-oxy-(11aS)-1,2,3,11a-5H-pyrrolo[2,1-c][1,4]benzodiazepin-5-one; were evaluated for in vitro anticancer activity against […] derived from […] (leukemia, ovarian, renal, melanoma, CNS, colon, prostate, lung, cervix and breast cancer) as shown in (Table 1, 2 and 3)
(§3) 6b, 6c, 6g, 10a and 10b were evaluated for in vitro anticancer activity against sixty human tumour cells derived from nine cancer types (leukemia, non-small-cell lung, colon, CNS, melanoma, ovarian, prostate, renal and breast cancer) as shown in (Table 1 and 2). For the compound, dose response curves for each cell line were measured at a minimum of five concentrations at 10 fold dilutions. A protocol of 48 h continuous drug exposure was used and a sulforhodamine B (SRB) protein assay was used to estimate cell viability or growth. The concentration causing 50% cell growth inhibition (GI50), total cell growth inhibition (TGI 0% growth) and 50% cell death (LC50, −50% growth) compared with the control was calculated.
(§4) Each cancer type represents the average of six to eight different cancer cell lines.

Colon cancer cell lines = test: as above; format: cell-based, human; details: average of six to eight cell lines, 48 h exposure
Description: as §1, §2, §3, §4

Breast cancer cell lines = test: as above; format: cell-based, human; details: average of six to eight cell lines, 48 h exposure
Description: as §1, §2, §3, §4

[2] = system: Melanoma cancer cell lines; test: as above; format: cell-based, human; details: average of six to eight cell lines, 48 h exposure
Description: as §1, §2, §3, §4

[3] = system: Non-small cell lung cancer cell lines; test: as above; format: cell-based, human; details: average of six to eight cell lines, 48 h exposure
Description: as §1, §2, §3, §4

[4] = system: Prostate cancer cell lines; test: as above; format: cell-based, human; details: average of six to eight cell lines, 48 h exposure
Description: as §1, §2, §3, §4

[5] = system: Ovarian cancer cell lines; test: as above; format: cell-based, human; details: average of six to eight cell lines, 48 h exposure
Description: as §1, §2, §3, §4

[6] = system: Leukemia cancer cell lines; test: as above; format: cell-based, human; details: average of six to eight cell lines, 48 h exposure
Description: as §1, §2, §3, §4

CNS cancer cell lines = test: as above; format: cell-based, human; details: average of six to eight cell lines, 48 h exposure
Description: as §1, §2, §3, §4

OVCAR-3 (Ovarian) = test: Cytotoxicity in selected cancer cell lines (SRB, 48 h); format: cell-based, human
Description: as §1, §3
(§5) Each cancer type represents the average of six to nine different cancer cell lines. In vitro evaluation of cytotoxic activity. The compound 6b, 6c, 6g 10a and 10b were evaluated for in vitro anticancer activity against nine human tumour cells derived from six cancer types (leukemia, colon, prostate, melanoma, ovarian, lung, cervix and breast cancer) as shown in Table 3. […] Compounds 6b, 6c, 6g, 10a and 10b have been evaluated for their in vitro cytotoxicity in selected human cancer cell lines of colon (Colo205), lung (NCI-H522, NCI-H226), colon (colo-205), prostate (DU145, PC3), ovarian (IGROV1, HT1080), and breast (MDA-MB-435, Zr-75-1), melanoma (LOXMIVI, VACC-62, SK-MEL-5) origin. A protocol of 48 h continuous drug exposure has been used and an […] has been used to estimate cell viability or growth. The results are expressed as percent of cell growth determined relative to that of untreated control cells

SF-539 (CNS) = test: as above; format: cell-based, human
Description: as §1, §3, §5

[7] = system: NCI-H522 (Non-small cell lung); test: as above; format: cell-based, human
Description: as §1, §3, §5

HCT-116 (Colon) = test: as above; format: cell-based, human
Description: as §1, §3, §5

M14 (Melanoma) = test: as above; format: cell-based, human
Description: as §1, §3, §5

UO-31 (Renal) = test: as above; format: cell-based, human
Description: as §1, §3, §5

CAKI-1 (Renal) = test: as above; format: cell-based, human
Description: as §1, §3, §5

LOX IMVI (Melanoma) = test: as above; format: cell-based, human
Description: as §1, §3, §5

MALME-3M (Melanoma) = test: as above; format: cell-based, human
Description: as §1, §3, §5

NCI/ADR-RES (Breast) = test: as above; format: cell-based, human
Description: as §1, §3, §5

SW-620 (Colon) = test: as above; format: cell-based, human
Description: as §1, §3, §5

[8] = system: NCI-H226 (Non-small cell lung); test: as above; format: cell-based, human
Description: as §1, §3, §5

HCT-15 (Colon) = test: as above; format: cell-based, human
Description: as §1, §3, §5

RPMI-8226 (Leukemia) = test: as above; format: cell-based, human
Description: as §1, §3, §5

A498 (Renal) = test: as above; format: cell-based, human
Description: as §1, §3, §5

[9] = system: NCI-H23 (Non-small cell lung); test: as above; format: cell-based, human
Description: as §1, §3, §5

SK-MEL-5 (Melanoma) = test: as above; format: cell-based, human
Description: as §1, §3, §5

MDA-MB-231/ATCC (Breast) = test: as above; format: cell-based, human
Description: as §1, §3, §5

HL-60(TB) (Leukemia) = test: as above; format: cell-based, human
Description: as §1, §3, §5

TK-10 (Renal) = test: as above; format: cell-based, human
Description: as §1, §3, §5

U251 (CNS) = test: as above; format: cell-based, human
Description: as §1, §3, §5

786-0 (Renal) = test: as above; format: cell-based, human
Description: as §1, §3, §5

UACC-62 (Melanoma) = test: as above; format: cell-based, human
Description: as §1, §3, §5

UACC-257 (Melanoma) = test: as above; format: cell-based, human
Description: as §1, §3, §5

ACHN (Renal) = test: as above; format: cell-based, human
Description: as §1, §3, §5

CCRF-CEM (Leukemia) = test: as above; format: cell-based, human
Description: as §1, §3, §5

human tumour cell lines = test: In vitro cytotoxicity, mean graph midpoints (MG_MID) over human tumour cell lines; format: cell-based; details: human tumour cell lines, 48 h exposure, SRB
Description: as §1, §3

COc1cc(C=CC(=O)c2ccc(F)cc2)ccc1OCCCOc1cc2c(cc1OC)C(=O)N1CCC[C@H]1C=N2 [6a, 7-Methoxy-8-{3-[1-(4-fluorophenyl)-3-(4-hydroxy-3-methoxyphenyl)-2-propen-1-one]propyl}-oxy-(11aS)-1,2,3,11a-5H-pyrrolo[2,1-c][1,4]benzodiazepin-5-one]
ΔTμ (° C.) after incubation at 37 °C. for 0 h [1]: 1.7 °C
ΔTμ (° C.) after incubation at 37 °C. for 18 h [1]: 2.4 °C

COc1cc(/C=C/C(=O)c2ccc(O)cc2)ccc1OCCCOc1cc2c(cc1OC)C(=O)N1CCC[C@H]1C=N2 [6g, 7-Methoxy-8-{3-[1-(4-hydroxyphenyl)-3-(4-hydroxy-3-methoxyphenyl)-2-propen-1-one]propyl}-oxy-(11aS)-1,2,3,11a-5H-pyrrolo[2,1-c][1,4]benzodiazepin-5-one]
Log GI50 (concentration in mol/L causing 50% growth inhibition) (Renal cancer cell lines): −5.67 mol/L
Log GI50 (concentration in mol/L causing 50% growth inhibition) (Colon cancer cell lines): −5.85 mol/L
Log GI50 (concentration in mol/L causing 50% growth inhibition) (Breast cancer cell lines): −6.57 mol/L
Log GI50 (concentration in mol/L causing 50% growth inhibition) [2]: −5.65 mol/L
Log GI50 (concentration in mol/L causing 50% growth inhibition) [3]: −5.82 mol/L
Log GI50 (concentration in mol/L causing 50% growth inhibition) [4]: −4.63 mol/L
Log GI50 (concentration in mol/L causing 50% growth inhibition) [5]: −5.56 mol/L
Log GI50 (concentration in mol/L causing 50% growth inhibition) [6]: −5.62 mol/L
Log GI50 (concentration in mol/L causing 50% growth inhibition) (CNS cancer cell lines): −5.62 mol/L
GI50 (OVCAR-3 (Ovarian)): 46.3 µM
GI50 (SF-539 (CNS)): 33.7 µM
GI50 [7]: 18.3 µM
GI50 (HCT-116 (Colon)): 14.6 µM
GI50 (M14 (Melanoma)): 18.8 µM
GI50 (UO-31 (Renal)): 45.2 µM
GI50 (CAKI-1 (Renal)): 22.9 µM
GI50 (LOX IMVI (Melanoma)): 15 µM
GI50 (MALME-3M (Melanoma)): 36.2 µM
GI50 (NCI/ADR-RES (Breast)): 28.7 µM
GI50 (SW-620 (Colon)): 26.9 µM
GI50 [8]: 28.4 µM
GI50 (HCT-15 (Colon)): 18.4 µM
GI50 (RPMI-8226 (Leukemia)): 46.8 µM
GI50 (A498 (Renal)): 29 µM
GI50 [9]: 22.5 µM
GI50 (SK-MEL-5 (Melanoma)): 23.3 µM
GI50 (MDA-MB-231/ATCC (Breast)): 14.2 µM
GI50 (HL-60(TB) (Leukemia)): 49.5 µM
GI50 (TK-10 (Renal)): 31.4 µM
GI50 (U251 (CNS)): 19.8 µM
GI50 (786-0 (Renal)): 24.9 µM
GI50 (UACC-62 (Melanoma)): 22.5 µM
GI50 (UACC-257 (Melanoma)): 15.9 µM
GI50 (ACHN (Renal)): 46.1 µM
GI50 (CCRF-CEM (Leukemia)): 37.4 µM
Log10LC50 mean graph midpoint (MG_MID) (human tumour cell lines; 50% cell death): −4.58
Log10GI50 mean graph midpoint (MG_MID) (human tumour cell lines): −5.78
Log10TGI mean graph midpoint (MG_MID) (human tumour cell lines; total cell growth inhibition): −5.86

COc1cc2c(cc1O)N=CC1CCCN1C2=O (stereo not drawn) [DC-81, reference compound]
ΔTμ (° C.) after incubation at 37 °C. for 0 h [1]: 0.3 °C
ΔTμ (° C.) after incubation at 37 °C. for 18 h [1]: 0.7 °C

COc1cc(C=CC(=O)c2c(C)nc3ccccc3c2C)ccc1OCCCCCOc1cc2c(cc1OC)C(=O)N1CCC[C@H]1C=N2 [10c, 7-Methoxy-8-{5-[3-(4-hydroxy-3-methoxyphenyl)-1-(2,4-dimethyl-3-quinolyl)-2-propen-1-one]pentyl}-oxy-(11aS)-1,2,3,11a-5H-pyrrolo[2,1-c][1,4]benzodiazepin-5-one]
ΔTμ (° C.) after incubation at 37 °C. for 0 h [1]: 4.7 °C
ΔTμ (° C.) after incubation at 37 °C. for 18 h [1]: 5.1 °C

COc1cc(C=CC(=O)c2c(C)nc3ccccc3c2C)ccc1OCCCCCCOc1cc2c(cc1OC)C(=O)N1CCC[C@H]1C=N2 [10d, 7-Methoxy-8-{6-[3-(4-hydroxy-3-methoxyphenyl)-1-(2,4-dimethyl-3-quinolyl)-2-propen-1-one]hexyl}-oxy-(11aS)-1,2,3,11a-5H-pyrrolo[2,1-c][1,4]benzodiazepin-5-one]
ΔTμ (° C.) after incubation at 37 °C. for 0 h [1]: 4.9 °C
ΔTμ (° C.) after incubation at 37 °C. for 18 h [1]: 5.3 °C

COc1cc(C=CC(=O)c2ccccc2O)ccc1OCCCOc1cc2c(cc1OC)C(=O)N1CCC[C@H]1C=N2 [6d, 7-Methoxy-8-{3-[1-(2-hydroxyphenyl)-3-(4-hydroxy-3-methoxyphenyl)-2-propen-1-one]propyl}-oxy-(11aS)-1,2,3,11a-5H-pyrrolo[2,1-c][1,4]benzodiazepin-5-one]
ΔTμ (° C.) after incubation at 37 °C. for 0 h [1]: 2.1 °C
ΔTμ (° C.) after incubation at 37 °C. for 18 h [1]: 2.6 °C
